Assay results as given in patent US10329302B2, “Bicyclic-fused heteroaryl or aryl compounds” (Pfizer Inc., priority 2014, dated 2019).

biological target: human IRAK4 kinase domain (aa 154-460) (Homo sapiens (Human), UniProt Q9NWZ3); test: IRAK4 Enzymatic DELFIA Assay, Protocol B; assay type: biochemical; settings: not given
Source text: IRAK4 Enzymatic DELFIA Assay, Protocol B.

Chain of human IRAK4 kinase domain (aa 154-460) (Q9NWZ3 154-460): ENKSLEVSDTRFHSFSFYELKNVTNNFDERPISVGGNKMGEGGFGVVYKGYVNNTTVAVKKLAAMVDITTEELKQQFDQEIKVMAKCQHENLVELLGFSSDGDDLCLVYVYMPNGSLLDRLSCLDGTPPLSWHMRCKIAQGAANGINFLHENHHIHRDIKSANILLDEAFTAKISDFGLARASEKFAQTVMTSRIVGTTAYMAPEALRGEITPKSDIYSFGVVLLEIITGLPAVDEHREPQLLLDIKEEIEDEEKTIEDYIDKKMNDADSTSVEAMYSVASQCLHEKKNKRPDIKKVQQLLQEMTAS

Compound	IC50
CC(C)Oc1cc2c(OC3CC4CCC3C4)ccnc2cc1C(N)=O (stereo not drawn) [Example 16, 4-(bicyclo[2.2.1]hept-2-yloxy)-6-(propan-2-yloxy)quinoline-7-carboxamide]	0.386 µM
CC(C)Oc1cc2c(OC3C4CC5C(C4)C53)ccnc2cc1C(N)=O (stereo not drawn) [Example 17, 6-(propan-2-yloxy)-4-(tricyclo[2.2.1.0~2,6~]hept-3-yloxy)quinoline-7-carboxamide]	0.476 µM

same assay, conditions: human IRAK4 kinase domain (aa 154-460), 0.6 mM ATP (KM); read-out: IRAK4 DELFIA Protocol B IC50

Compound	IC50
CC(C)Oc1cc2c(O[C@@H]3C[C@H]4C[C@@H]3CN4)nccc2cc1C(N)=O [Example 02, 1-[(1R,4R,5R)-2-azabicyclo[2.2.1]hept-5-yloxy]-7-(propan-2-yloxy)isoquinoline-6-carboxamide]	0.217 µM
CC(C)Oc1cc2c(OC[C@H]3CCCNC3)ccnc2cc1C(N)=O [Example 2, 4-[(3S)-piperidin-3-ylmethoxy]-6-(propan-2-yloxy)quinoline-7-carboxamide]	4.5 µM
CC(C)Oc1cc2c(OC[C@@H]3CCCNC3)ccnc2cc1C(N)=O [Example 3, 4-[(3R)-piperidin-3-ylmethoxy]-6-(propan-2-yloxy)quinoline-7-carboxamide]	2.24 µM
CC(C)Oc1cc2c(OCC3CCNCC3)ccnc2cc1C(N)=O [Example 4, 4-(piperidin-4-ylmethoxy)-6-(propan-2-yloxy)quinoline-7-carboxamide]	0.913 µM
CC(C)Oc1cc2c(OC[C@H]3[C@@H]4CNC[C@@H]43)ccnc2cc1C(N)=O [Example 5, 4-[(1R,5S,6r)-3-azabicyclo[3.1.0]hex-6-ylmethoxy]-6-(propan-2-yloxy)quinoline-7-carboxamide]	0.323 µM
CC(C)Oc1cc2c(OCC3COC3)ccnc2cc1C(N)=O [Example 6, 4-(oxetan-3-ylmethoxy)-6-(propan-2-yloxy)quinoline-7-carboxamide]	0.618 µM
CC(C)Oc1cc2c(OCC3CCCC3)ccnc2cc1C(N)=O [Example 7, 4-(cyclopentylmethoxy)-6-(propan-2-yloxy)quinoline-7-carboxamide]	0.17 µM
CC(C)Oc1cc2c(OC(C)C3CCC3)ccnc2cc1C(N)=O (stereo not drawn) [Example 8, 4-(1-cyclobutylethoxy)-6-(propan-2-yloxy)quinoline-7-carboxamide]	0.834 µM
CC(C)Oc1cc2c(OCC3CCC3)ccnc2cc1C(N)=O [Example 9, 4-(cyclobutylmethoxy)-6-(propan-2-yloxy)quinoline-7-carboxamide]	0.598 µM
CC(C)Oc1cc2c(OCC3CCOC3)ccnc2cc1C(N)=O (stereo not drawn) [Example 10, 6-(propan-2-yloxy)-4-(tetrahydrofuran-3-ylmethoxy)quinoline-7-carboxamide]	0.752 µM
CC(C)Oc1cc2c(OCC3CCCO3)ccnc2cc1C(N)=O (stereo not drawn) [Example 11, 6-(propan-2-yloxy)-4-(tetrahydrofuran-2-ylmethoxy)quinoline-7-carboxamide]	3.23 µM
CC(C)Oc1cc2c(OCC3(C)COC3)ccnc2cc1C(N)=O [Example 12, 4-[(3-methyloxetan-3-yl)methoxy]-6-(propan-2-yloxy)quinoline-7-carboxamide]	1.04 µM
CC(C)Oc1cc2c(OCC3(C)CCC3)ccnc2cc1C(N)=O [Example 13, 4-[(1-methylcyclobutyl)methoxy]-6-(propan-2-yloxy)quinoline-7-carboxamide]	0.383 µM
CC(C)Oc1cc2c(O[C@@H]3CC4CCC3C4)ccnc2cc1C(N)=O (stereo partly drawn) [Example 14, 4-[(2R)-bicyclo[2.2.1]hept-2-yloxy]-6-(propan-2-yloxy)quinoline-7-carboxamide]	0.231 µM
CC(C)Oc1cc2c(OC[C@H]3CCCO3)ccnc2cc1C(N)=O [Example 15, 6-(propan-2-yloxy)-4-[(2R)-tetrahydrofuran-2-ylmethoxy]quinoline-7-carboxamide]	2.97 µM
CC(C)Oc1cc2c(OCC3COCO3)ccnc2cc1C(N)=O (stereo not drawn) [Example 18, 4-(1,3-dioxolan-4-ylmethoxy)-6-(propan-2-yloxy)quinoline-7-carboxamide]	0.507 µM
